Where no end group is shown, it is not given here.
Key:
[1] = tested on: APPSwe/PS1 mice; assay: T-water maze; format: in vivo; settings: for T-water maze, spatial memory: Example 21, twelve weekly injections, 3D MPL 50 μg, CRX527 20 μg, CRX601 20 μg i.p., AS01B 1/10th human dose i.m., vs non treated, FIG. 24
Method: Five groups of APPSwe/PS1 mice received one a week for a period of 12 weeks the following treatment: • Gr1: APPSwe/PS1+NaCl 0.9% n(=20), i.p. injections • Gr4: APPSwe/PS1+CRX527 (20 μg/mouse, 130 μl, n=10), i.p. injections • Gr5: APPSwe/PS1+CRX601 (20 μg/mouse, 130 μl, n=10), i.p. injections • Gr6: APPSwe/PS1+3D MPL (50 μg/mouse, 130 μl, n=10), i.p. injections • Gr8 APPSwe/PS1+AS15 ( 1/10th of human dose, 50 μl, n=10), i.m. injections • Gr9: APPSwe/PS1+AS01B ( 1/10th of human dose, 50 μl, n=10), i.m. injections
Mice were tested during the “light on” phase of the day. Behavioral experimenter was blinded to the genetic and treatment status of animals. To assess hippocampal-dependent spatial learning and memory, mice were trained in the T-water maze task. In this paradigm, we evaluate the mouse's ability to remember the spatial location of submerged platform. The T-maze apparatus (length of stem, 64 cm; length of arms, 30 cm; width, 12 cm; height of walls, 16 cm) was made of clear fiberglass and filled with water (23±1° C.) at a height of 12 cm. A platform (11×11 cm) was placed at the end of the target arm and was submerged 1 cm below the surface. The acquisition phase allows to evaluate animals for left-right spatial learning. During the first two trials, platforms were placed on each arms of the maze to test the spontaneous turning preference of the mouse. After these two trials, the least chosen arm was reinforced by the escape platform. The mice were placed in the stem of the T-maze and choose to swim either left or right until they found the submerged platform and escape to it, to a maximum of 60 s. After reaching the platform, the mice remained on it for 20 s and then were immediately placed back in the maze. […] Repeated trials were presented on the same day up to a maximum of 48 trials. A rest period of at least 10-15 min intervened between each block of 10 trials. A mouse was considered to have learned the task when it made no errors in a block of five consecutive trials. The reversal learning phase was then conducted 48 h later. During this phase, the same protocol was repeated, except that the mice were trained to find the escape platform on the opposite side to that on which they had learned on acquisition phase. The number of trials to reach the criterion (five of five correct choices made on consecutive trials) was measured as well as the latency to find the escape platform.

[2] = tested on: CD11b+ peripheral blood monocytes; assay: Ex vivo uptake assay of Aβ1-42 by peripheral blood monocytes; format: cell-based, C57BL/6 mice
Method: (§1) Red blood cell lysis was performed twice on pooled blood with Ammonium Chloride-based Buffer (Sigma, Steinheim, Germany) and cells were counted with the EasyCount™ System (Immunicon).
(§2) Cells were finally washed twice and fixed for 15 min. with a 2% paraformaldehyde solution in PBS. FMOs controls were always included in the assays.
as §1

[3] = tested on: CD11b+ peripheral blood monocytes; assay: In vivo uptake assay of Aβ42 after immunization or passive immunotherapy; set-up: species or system C57BL/6 mice; settings: FIG. 22
Method: as §2
(§3) Cells were finally washed twice and fixed for 15 min. with a 2% paraformaldehyde solution in PBS. FMOs controls were always included in the assays. Samples were acquired on a flow cytometer (BD FACSCanto II) and data analyzed with the FACSDiva software (BD Biosciences). Monocytes were identified and counted by their Side/Forward scatter properties, excluding debris and gated as CD3-/CD45R/B220-/Ly-6G-/NK1.1-(Lineage-)/CD11b+ cells.

[4] = tested on: Lineage- CD11b+ monocytes in peripheral blood; assay: Monocyte analysis and counting after adjuvant injection in mice; format: in vivo, C57BL/6 mice
Method: (§4) 24-Hours after injection of the TLR adjuvants, peripheral blood was drawn from C57BL/6 mice via cardiac puncture with lithium-heparin as anticoagulant. Red blood cell lysis was performed twice on pooled blood with Ammonium Chloride-based Buffer (Sigma, Steinheim, Germany) and cells were counted with the EasyCount™ System (Immunicon). […] Cells were finally washed three times and fixed for 15 min. with a 2% paraformaldehyde solution in PBS. Fluorescence minus one (FMO) controls were always included in the assays for fluorescent compensation setting. Samples were acquired on a flow cytometer (BD FACSCanto II) and data analyzed with the FACSDiva software (BD Biosciences). Monocytes were identified by their Side/Forward scatter properties and gated as CD3-/CD45R/B220-/Ly-6G-/NK1.1-(Lineage-)/CD11b+ cells. CD11b+ monocyte frequency was reported as a percentage of the total cells excluding debris.
as §4, with “24 hours” for “24-Hours”, “each immunomodulator,” for “the TLR adjuvants,”, “min” for “min.”, “monocytes” for “monocyte”
as §3

[5] = tested on: human microglial cell line CHME; assay: Phagocytosis of Aβ1-42 by CHME microglial cell line; format: cell-based; settings: FIG. 18
Method: Phagocytosis of beta-amyloid 1-42 peptide by the human microglial cell line CHME was observed after the addition of TLR2 agonist containing adjuvants Protollin and Pam3CysLip peptide. […] The synthetic peptide sequence of the Pam3Cys Lip peptide is described herein: Pam3Cys—SQ EPAAPAAEAT PAAEAP. Protollin was used at concentration 1 ug per ml based on the LPS content from Shigella flexneri. Pam3Cys lip peptide was used at concentration of 5 ug per ml of the pure tri-palmitoylated peptide.
Additionally, cells were imaged using 42 HiLyte 488 Fluo (Anaspec, Inc.) at 2 ug per ml in DMEM complete media (Invitrogen). Lysotracker red staining was performed and slides were mounted and co-stained with DAPI to show the nucleus (blue). […] Lysotracker red reagent was purchased from Invitrogen and used as manufacturer recommendations.

`CCCCCCCCCCC[C@H](CC(=O)N[C@H]1[C@H](OC[C@H](NC(=O)C[C@@H](CCCCCCCCCCC)OC(=O)CCCCCCCCC)C(=O)O)O[C@H](CO)[C@@H](OP(=O)(O)O)[C@@H]1OC(=O)C[C@@H](CCCCCCCCCCC)OC(=O)CCCCCCCCC)OC(=O)CCCCCCCCC` [CRX527] was tested, and the “T-water maze, spatial memory” value [1] was “spatial memory improvement” and the “T-water maze, spatial memory” value ([1]; listed as CRX 527) was “significant improvements in behaviour”.

`CCCCCCCCCCC[C@H](CC(=O)N[C@H]1[C@H](OC[C@H](NC(=O)C[C@@H](CCCCCCCCCCC)OCCCCCCCCCC)C(=O)O)O[C@H](CO)[C@@H](OP(=O)(O)O)[C@@H]1OC(=O)C[C@@H](CCCCCCCCCCC)OCCCCCCCCCC)OCCCCCCCCCC` [CRX601] was tested, and the “ex vivo uptake of Aβ42 by peripheral blood monocytes” value ([2]; i.m. AS01B mouse full dose (5 ug per mouse) or CRX601 2 μg, vs PBS group, FIG. 14) was “uptake an higher amount of Aβ42”, the “T-water maze, spatial memory” value [1] was “spatial memory improvement” and the “T-water maze, spatial memory” value ([1]; listed as CRX 601) was “significant improvements in behaviour”. For the same compound, the “T-water maze, cognitive functions” value ([1]; Example 22, i.m., 12× weekly from 3 months old, CRX601 2 μg, CRX601 2 ug in AS03, 3D MPL 5 ug, AS01B 1/10 human dose, vs PBS, unpaired t-tests, FIG. 27A) was “significant improvement of their cognitive functions”, the “antibody-mediated Aβ uptake in peripheral blood monocytes” value (“antibody-mediated Aβ uptake” for short) ([3]; CRX601 at 20 ug when combined with AS03 emulsion) was “partially quenched” and the “antibody-mediated Aβ uptake” value ([3]; CRX601 at 20 ug, single i.m., plus 15 ug 2E7) was “triggers highest Aβ uptake”. The “antibody-mediated Aβ uptake” value ([3]; single i.m. injection of different doses plus 15 ug 2E7, Aβ Fluor i.v. 24 hr later) was “Dose-response observed”, the “dose of maximum monocyte response” value ([4]; single i.m., 0.2-20 ug/mouse, FIG. 12) was 10 µg and the “dose enough to trigger an increase of the monocyte count” value ([4]; single i.m., 24 hrs, compared to PBS, FIG. 12) was 1 µg. For the same compound, the “effect on monocyte count at 20 μg dose” value ([4]; single i.m., FIG. 12) was “down modulated”.

For “Pam3Cys—SQ EPAAPAAEAT PAAEAP (Pam3Cys-SQEPAAPAAEATPAAEAP) [Pam3CysLip peptide, TLR2 agonist, tri-palmitoylated peptide from Neisseria meningitidis strain 8047]”, the “phagocytosis of beta-amyloid 1-42 peptide” value ([5]; 5 ug per ml, pre-incubation 18 hrs) was 86 % of cells and the amyloid phagocytic activity ([5]; Pam3CysLip peptide 5 ug per ml, Protollin 1 ug per ml (LPS content), compared to PBS) was “higher amyloid phagocytic activity”.

With QS21 [reference compound] the “ex vivo Aβ42 uptake by peripheral blood monocytes” value ([2]; i.m. injection, 24 hrs, compared to PBS, QS21 (5 ug), liposomal MPL (5 ug) or MPL (5 ug), FIG. 20) was “does not promote Aβ uptake”, the “number of monocytes, of total peripheral white blood cells” value ([4]; 24 hrs after single i.m. injection (5 μg QS21), FIG. 19A) was 9.1% and the “activated Ly6C+ monocytes” value ([4]; 24 hrs after single i.m. injection (5 μg QS21), FIG. 19B) was 75%.

Source: US20120321694A1, “COMPOSITIONS AND USES” (priority 2010, published 2012)
